US10507212B2, “Method for use of homopiperazinium compounds in the treatment of cancer” (UNIVERSITÉ LAVAL, priority 2014, dated 2019)
Structures can show the parent of a compound that is named as a salt. Where two headings read alike, the source gives them in different places.

Key:
[1] = test system: A549 adenocarcinoma cell line; assay: Cell proliferation assay, A549 (MTT)
Experimental: (§1) In vitro experiments were conducted on four cancer cell lines: the A549 adenocarcinoma cell line, the H520 squamous cell carcinoma the H82 small cell lung carcinoma and Calu 3 lung adenocarcinoma. The A549 tumor cells, were plated at a density of 1.5×10^4 cells per mL and let to adhere on 96-well microplates in F12K cell culture medium enriched with 10% fetal calf serum (FCS). The H520, H82 and Calu 3 tumor cells were plated at a density of 5×10^4 cells per mL in RPMI+10% FCS. After 24 h in culture, the medium was changed and cells were exposed to ASM-024 at concentrations ranging from 10^−7M to 10^−3M (FIGS. 1A-1C). After 3 and 6 days in culture, cell growth was quantified using the MTT colorimetric assay (M2128, Sigma) at 575-690 nm or the Cell Titer fluorescence assay (G8080, Promega) at 560/590 nm.
(§2) In an another set of experiments, a series of 16 other homopiperazinium compounds, in addition to ASM-024, were tested for their anti-proliferative effect on the four tumor cell lines described above after up to 6 days in culture at concentrations of 10^-7M to 10^-3M. (FIGS. 4A-4E) Cell growth was quantified using the MTT colorimetric assay for the A-549, H520 and Calu 3 cell lines and the CellTiter Fluorescence assay.for the H82 tumor cell line These are established method of determining viable cell number in proliferation studies.

[2] = test system: H82 small cell lung carcinoma; assay: Cell proliferation assay, H82 (CellTiter fluorescence); format: cell-based; conditions: for inhibition at 100 µM / inhibition at 300 µM / IC50: Homo sapiens; for inhibition at 100 µM / inhibition at 300 µM: read-out: % Inhibition of Cell Growth at day 3 compared to vehicle-treated cells
Experimental: as §1, §2

[3] = test system: H520 squamous cell carcinoma; assay: Cell proliferation assay, H520 (MTT); format: cell-based
Experimental: as §1, §2

[4] = test system: Calu 3 lung adenocarcinoma; assay: Cell proliferation assay, Calu 3 (MTT); format: cell-based; conditions: Homo sapiens
Experimental: as §1, §2

[5] = Homo sapiens, A549, 72 h, read-out: IC50 Day 3, A549, day 3 in culture
[6] = Homo sapiens, A549, 144 h, read-out: IC50 Day 6, A549, day 6 in culture
[7] = Homo sapiens, NCI-H520, 72 h, read-out: IC50 Day 3, H520, day 3 in culture
[8] = Homo sapiens, NCI-H520, 144 h, read-out: IC50 Day 6, H520, day 6 in culture
[9] = read-out: IC50 Day 3, A549, day 3 in culture
[10] = read-out: IC50 Day 6, A549, day 6 in culture
[11] = H520, day 3 in culture, read-out: IC50 Day 3
[12] = H520, day 6 in culture, read-out: IC50 Day 6
[13] = NCI-H82, 72 h, H82, day 3, 3 × 10^−4M
[14] = NCI-H82, 72 h, H82, day 3, 10^−4M
[15] = Homo sapiens, NCI-H520, 72 h, H520, day 3 in culture, read-out: IC50 Day 3
[16] = Homo sapiens, NCI-H520, 144 h, H520, day 6 in culture, read-out: IC50 Day 6
[17] = NCI-H82, 72 h, H82, day 3 in culture, read-out: IC50 Day 3
[18] = NCI-H82, 144 h, H82, day 6 in culture, read-out: IC50 Day 6
[19] = 72 h, Calu 3, day 3 in culture, read-out: IC50 Day 3
[20] = 144 h, Calu 3, day 6 in culture, read-out: IC50 Day 6
[21] = NCI-H82, 72 h, read-out: IC50 Day 3
[22] = NCI-H82, 144 h, read-out: IC50 Day 6

`C[N+]1(C)CCCN(c2ccc(C(F)(F)F)cc2)CC1` (as salt: iodide) [ASM-071, 4-Dimethyl-1-(4-trifluorophenyl)-homopiperazinium Iodide] gave a melting point of 224.3 to 225.4 °C.
For `C[N+]1(C)CCCN(c2ccc(C(F)(F)F)cc2)CC1` (as salt: tosylate) [ASM-058, 1,1-Dimethyl-4-(4-trifluoromethylphenyl)-homopiperazinium Tosylate], the melting point was 212.6 to 213.4 °C.
In the case of `Cc1cccc(N2CCC[N+](C)(C)CC2)c1` (as salt: tosylate) [ASM-068, 4-Dimethyl-1-(3-methylphenyl)-homopiperazinium Tosylate], the melting point is reported as 161.6 to 162.5 °C.
Work on `CC[N+]1(CC)CCCN(c2ccc(O)cc2)CC1` (as salt: tosylate) [ASM-073, 1,1-Diethyl-4-(phenyl-4-hydroxy)-homopiperazinium tosylate] yielded a melting point of 144 to 145.5 °C.
`CC[N+]1(C)CCCN(c2ccccc2)CC1.[I-]` (centres unmarked) (hydrate or solvate) [ASM-055, 1-Ethyl-1-Methyl-4-(phenyl)-homopiperazinium Tosylate] gave a melting point of 167.5 to 168.7 °C.
In the case of `C[N+]1(C)CCCN(c2ccccc2)CC1.[I-]` [ASM-002, 1,1-dimethyl-4-phenylhomopiperazinium iodide], the IC50 [1, 5] is reported as 40 ± 15 µM, the IC50 [1, 6] is reported as 38 ± 12 µM and the inhibition at 100 µM ([2]; NCI-H82, 72 h) is reported as -15%. The inhibition at 300 µM ([2]; NCI-H82, 72 h) was 31%, the melting point was 158 to 160 °C and the IC50 [3, 7] was 323 ± 60 µM. The IC50 [3, 8] was 170 ± 23 µM.
In the case of `CC[N+]1(CC)CCCN(c2ccccc2)CC1.[I-]` [ASM-009, 1,1-Diethyl-4-phenyl-homopiperazinium Iodide], the IC50 [1, 9] is reported as 51 ± 6 µM, the IC50 [1, 10] is reported as 48 ± 25 µM and the “% Inhibition of Cell Growth at day 3 compared to vehicle-treated cells” value (“% Inhibition of Cell Growth” below) ([2]; H82, day 3, 3 × 10^−4M) is reported as 35%. For the same compound, the “% Inhibition of Cell Growth” value ([2]; H82, day 3, 10^−4M) was −12%, the IC50 [3, 11] was 892 ± 98 µM and the IC50 [3, 12] was 396 ± 147 µM.
Compound `C[N+]1(C)CCCN(c2ccccn2)CC1` [ASM-016, 1,1-Dimethyl-4-(2-pyridyl)-homopiperazinium Iodide] has an IC50 [1, 5] of 90 ± 15 µM, an IC50 [1, 6] of 58 ± 22 µM and an inhibition at 300 µM [2, 13] of -6%. It also gave an inhibition at 100 µM [2, 14] of -22%, an IC50 [3, 15] of 415 ± 212 µM and an IC50 [3, 16] of 180 ± 92 µM.
`CC[N+]1(C)CCCN(c2ccccn2)CC1` (centres unmarked) [ASM-017, 1-Ethyl-1-methyl-4-(2-pyridyl)-homopiperazinium Iodide] gave an IC50 [1, 5] of 89 ± 13 µM, an IC50 [1, 6] of 65 ± 25 µM and an inhibition at 100 µM ([2]; NCI-H82, 72 h) of -26%. It also gave an inhibition at 300 µM ([2]; NCI-H82, 72 h) of -6%, an IC50 [3, 7] of 953 ± 39 µM and an IC50 [3, 8] of 469 ± 163 µM.
`CCC[N+]1(C)CCCN(c2ccccn2)CC1` (centres unmarked) [ASM-018, 1-Methyl-1-propyl-4-(2-pyridyl)-homopiperazinium Iodide] showed an IC50 [1, 5] of 136 ± 39 µM, an IC50 [1, 6] of 82 ± 32 µM and an inhibition at 300 µM [2, 13] of 35%. For the same compound, the inhibition at 100 µM [2, 14] was 15%, the IC50 [3, 15] was over 1000 µM and the IC50 [3, 16] was 536 ± 101 µM.
With `CC[N+]1(CC)CCCN(c2ccccc2)CC1.[Br-]` [ASM-021, 1,1-Diethyl-4-phenyl-homopiperazinium Bromide] the IC50 [1, 5] was 45 ± 12 µM, the IC50 [1, 6] was 51 ± 39 µM and the “% Inhibition of Cell Growth” value ([2]; H82, day 3, 3 × 10^−4M) was 59%. For the same compound, the “% Inhibition of Cell Growth” value ([2]; H82, day 3, 10^−4M) was 13%, the IC50 [3, 11] was over 1000 µM and the IC50 [3, 16] was 369 ± 171 µM.
In the case of `CC[N+]1(CC)CCCN(c2ccccc2)CC1.[Cl-]` [ASM-022, 1,1-Diethyl-4-phenyl-homopiperazinium Chloride], the IC50 [1, 9] is reported as 46 ± 7 µM, the IC50 [1, 10] is reported as 45 ± 32 µM and the “% Inhibition of Cell Growth” value ([2]; H82, day 3, 3 × 10^−4M) is reported as 55%. For the same compound, the “% Inhibition of Cell Growth” value ([2]; H82, day 3, 10^−4M) was 23%, the IC50 [3, 11] was over 700 µM and the IC50 [3, 12] was 387 ± 178 µM.
In the case of `CC[N+]1(CC)CCCN(c2ccccn2)CC1` [ASM-037, 1,1-Diethyl-4-(2-pyridyl)-homopiperazinium Tosylate], the IC50 [1, 5] is reported as 146 ± 92 µM, the IC50 [1, 6] is reported as 112 ± 96 µM and the inhibition at 300 µM [2, 13] is reported as 29%. It also gave an inhibition at 100 µM [2, 14] of 10%, an IC50 [3, 15] of over 1000 µM and an IC50 [3, 16] of 634 ± 124 µM.
`CC[N+]1(CC)CCCN(c2ccc(Cl)cc2)CC1` [ASM-048, 1,1-Diethyl-4-(4-chlorophenyl)-homopiperazinium Tosylate] gave an IC50 [1, 5] of 37 µM, an IC50 [1, 6] of 15 µM and an IC50 [2, 17] of 246 µM. The IC50 [2, 18] was 176 µM, the IC50 [3, 15] was 322 µM and the IC50 [3, 16] was 169 µM. For the same compound, the IC50 [4, 19] was 276 µM and the IC50 [4, 20] was 86 µM.
In the case of `CC[N+]1(CC)CCCN(c2ccc(F)cc2)CC1` [ASM-049, 1,1-Diethyl-4-(4-fluorophenyl)-homopiperazinium Tosylate], the IC50 [1, 5] is reported as 81 ± 74 µM, the IC50 [1, 6] is reported as 42 ± 34 µM and the IC50 [2, 17] is reported as 331 µM. For the same compound, the IC50 [2, 18] was 252 µM, the IC50 [3, 15] was over 700 µM and the IC50 [3, 16] was 288 ± 61 µM. The IC50 [4, 19] was 452 µM and the IC50 [4, 20] was 109 µM.
With `CC[N+]1(C)CCCN(c2ccccc2)CC1` (centres unmarked) [ASM-055, 1-Ethyl-1-Methyl-4-(phenyl)-homopiperazinium Tosylate] the IC50 [1, 5] was 60 ± 26 µM, the IC50 [1, 6] was 28 ± 15 µM and the inhibition at 300 µM [2, 13] was 66%. For the same compound, the inhibition at 100 µM [2, 14] was 36%, the IC50 [3, 15] was 622 ± 211 µM and the IC50 [3, 16] was 272 ± 65 µM.
Compound `C[N+]1(C)CCCN(c2ccc(C(F)(F)F)cc2)CC1` [ASM-058, 1,1-Dimethyl-4-(4-trifluoromethylphenyl)-homopiperazinium Tosylate] has an IC50 [1, 5] of 22 ± 10 µM, an IC50 [1, 6] of 27 ± 26 µM and an IC50 [2, 21] of 472 µM. The IC50 [2, 22] was 299 µM, the IC50 [3, 7] was 356 ± 143 µM and the IC50 [3, 8] was 210 ± 82 µM.
For `Cc1cccc(N2CCC[N+](C)(C)CC2)c1` [ASM-068, 4-Dimethyl-1-(3-methylphenyl)-homopiperazinium Tosylate], the IC50 [1, 5] was 36 ± 17 µM, the IC50 [1, 6] was 20 ± 16 µM and the IC50 [2, 21] was 298 µM. It also gave an IC50 [2, 22] of 179 µM, an IC50 [3, 7] of 580 ± 85 µM and an IC50 [3, 8] of 233 ± 31 µM. It also gave an IC50 ([4]; Calu-3, 72 h, read-out: IC50 Day 3) of over 1000 µM and an IC50 ([4]; Calu-3, 144 h, read-out: IC50 Day 6) of 52 µM.
`C[N+]1(C)CCCN(c2ccc(C(F)(F)F)cc2)CC1` [ASM-071, 4-Dimethyl-1-(4-trifluorophenyl)-homopiperazinium Iodide] showed an IC50 [1, 9] of 25 ± 15 µM, an IC50 [1, 10] of 18 ± 9 µM and an IC50 ([3]; read-out: IC50 Day 3, H520, day 3 in culture) of 523 ± 292 µM. It also gave an IC50 ([3]; read-out: IC50 Day 6, H520, day 6 in culture) of 235 ± 179 µM.
Compound `CC[N+]1(CC)CCCN(c2ccc(O)cc2)CC1` [ASM-073, 1,1-Diethyl-4-(phenyl-4-hydroxy)-homopiperazinium tosylate] has an IC50 [1, 5] of 119 ± 49 µM, an IC50 [1, 6] of 161 ± 82 µM and an inhibition at 100 µM ([2]; NCI-H82, 72 h) of 100%. The inhibition at 300 µM ([2]; NCI-H82, 72 h) was 100%, the IC50 [3, 7] was 187 ± 28 µM and the IC50 [3, 8] was 148 ± 14 µM.
In the case of `C[N+]1(C)[C@@H]2C[C@@H](OC(=O)C(O)(c3cccs3)c3cccs3)C[C@H]1[C@@H]1O[C@@H]12` [Tiotropium, reference compound], the “cell proliferation / cell growth inhibition (in words)” value ([1]; A549, day 3 and day 6, text on figures) is reported as “no significant cell growth inhibition”, the “IC50 (in words)” value ([1]; A549, cell line not given) is reported as “No IC50 could be calculated” and the “cell proliferation / cell growth inhibition (in words)” value ([2]; H82, day 3 and day 6, text on figures) is reported as “no significant cell growth inhibition”. For the same compound, the “IC50 (in words)” value ([2]; H82, cell line not given) was “No IC50 could be calculated”, the “cell proliferation / cell growth inhibition (in words)” value ([3]; H520, day 3 and day 6, text on figures) was “no significant cell growth inhibition” and the “IC50 (in words)” value ([3]; H520, cell line not given) was “No IC50 could be calculated”.
In the case of `CC(C)[N+]1(C)[C@@H]2CC[C@H]1C[C@@H](OC(=O)C(CO)c1ccccc1)C2` (some centres unmarked) [ipratropium, reference compound], the cytotoxic effect ([1]; A549, at 1000 μM) is reported as “cytotoxic effect”.
